Data from patent US11419827B2, “Protecting tissue and mitigating injury from radiation-induced ionizing events” (Humanetics Corporation, priority 2017, dated 2022).
Entries after “also recorded” stand apart in the source; their conditions may differ.

Key:
p53 and γH2AX = assay: Western blot for DNA damage markers p53 and γH2AX in heart and lung tissue of mice exposed to 6 Gy high LET proton radiation; type: in vivo; conditions: 200 mg/kg s.c. 24 hours before 6 Gy high LET proton radiation, tissues harvested 3 days later, vs tubulin control
Method: FIG. 2 is a western blot with heart and lung tissue extracted from animals that were treated with or without genistein [200 mg/kg subcutaneously (s.c.)] and then exposed to 6 Gy high LET proton radiation 24 hours after treatment. The indicated tissues were harvested 3 days later. The levels of p53 (a DNA damage response protein) and γH2AX (a direct measurement of DNA damage) were measured and compared to a tubulin control.
(§1) Mice were prophylactically administered genistein (200 mg/kg) via s.c. injection 24 hours prior to radiation exposure. Appropriate sham radiation and vehicle controls were applied. Radiation exposures of 6 Gy with high-LET protons [50 MeV fully modulated spread-out Bragg peak (SOBP)] were utilized. The following parameters were examined:
DNA damage in tissues—Lungs and heart were surgically removed and subjected to thin-slice sectioning, followed by western blot analysis for the DNA damage markers p53 and γH2AX (an effective measure of proton radiation-induced biological damage; see, Liu et al., Radiation Oncology 91(5):1081-1089, 2015), as well as tubulin control.

Human cardiomyocytes = assay: Live cell counts of human cardiomyocytes after mixed field (32% neutron, 68% gamma) radiation; type: cell-based; conditions: treated 24 hours before exposure to various doses of MF radiation; counts 3 days after exposure
Method: FIG. 5 is a graph plotting the number of live human cardiomyocytes after treatment of the cells with genistein 24 hours before exposure to various doses of mixed field (32% neutron, 68% gamma) radiation (henceforth referred to as “MF” radiation). Live cell counts were performed 3 days after radiation exposure.
Human cardiomyocytes were treated with genistein 24 hours before exposure to various doses of mixed field (“MF,” 32% neutron, 68% gamma) radiation. Live cell counts were performed 3 days after radiation exposure.

[1] = tested on: CXCL1 cytokine, G-CSF, TNFα; assay: Multi-cytokine LUMINEX panel on peripheral blood of mice exposed to 6 Gy high LET proton radiation; type: in vivo; conditions: 200 mg/kg s.c. 24 hours before 6 Gy high LET proton radiation; blood taken 3, 6 and 12 days after exposure
Method: FIGS. 4A, 4B, and 4C are graphs plotting the levels of CXCL1 cytokine (FIG. 4A), granulocyte colony stimulating factor (G-CSF; FIG. 4B), and tumor necrosis factor alpha (TNFα; FIG. 4C) in blood from mice injected with 200 mg/kg genistein (s.c.) 24 hours prior to exposure to 6 Gy high LET proton radiation. In these experiments, blood was drawn from mice on the indicated days following radiation exposure, and the levels of cytokines were assayed.
as §1
Cytokine response—Peripheral blood was taken from the treated and irradiated mice 3, 6, and 12 days after radiation exposure, and assessed using a multi-cytokine LUMINEX® panel to evaluate the global inflammatory cytokine response.

[2] = in several pharmaceutically acceptable solvents; cited from earlier work

O=c1c(-c2ccc(O)cc2)coc2cc(O)cc(O)c12 [genistein, 5,7-dihydroxy-3-(4-hydroxyphenyl)-chromen-4-one]
p53 levels in response to radiation exposure (p53 and γH2AX): prevented a marked increase in p53 levels | p53 levels in response to radiation exposure (p53 and γH2AX; listed as Genistein): ameliorated the effects of proton radiation | γH2AX levels (p53 and γH2AX; listed as Genistein): lower levels of γH2AX; also recorded: ameliorated the effects of proton radiation | survival (live cell counts) after MF radiation (Human cardiomyocytes): increased survival | expression of CXCL1 cytokine in blood [1]: mitigated the effects of proton radiation | expression of G-CSF in blood [1]: mitigated the effects of proton radiation | expression of TNFα in blood [1]: mitigated the effects of proton radiation | solubility [2]: low to virtually no solubility
